Test system: PDC KRAS tumor spheroids with HUVEC/MSC, viability
Assay: Anticancer human tumor 349418-098-R-PDC patient-derived lung adenocarcinoma cell line growth inhibition [KRAS2]
Settings: for IC50: curve of first compound; for viability, T/C: stronger effect = lower value; active means viability on the fitted dose curve at most 10% of control; inactive means the rest
Procedure, shortened: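 Combination screen of spheroid viability in tumor-cell co-cultures with endothelial (HUVEC) and mesenchymal stem cell stroma. Each agent was tested in half-log dilutions, topping at clinical Cmax or at 10 microM without a known Cmax.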

[1] = second compound 0.1 µM, first compound 0.000316 µM
[2] = second compound 0.1 µM, first compound 0.001 µM
[3] = second compound 0.1 µM, first compound 0.00316 µM
[4] = second compound 0.1 µM, first compound 0.01 µM
[5] = second compound 0.1 µM, first compound 0.0316 µM
[6] = second compound 0.316 µM, first compound 0.000316 µM
[7] = second compound 0.316 µM, first compound 0.001 µM
[8] = second compound 0.316 µM, first compound 0.00316 µM
[9] = second compound 0.316 µM, first compound 0.01 µM
[10] = second compound 0.316 µM, first compound 0.0316 µM
[11] = second compound 1 µM, first compound 0.000316 µM
[12] = second compound 1 µM, first compound 0.001 µM
[13] = second compound 1 µM, first compound 0.00316 µM
[14] = second compound 1 µM, first compound 0.01 µM
[15] = second compound 1 µM, first compound 0.0316 µM
[16] = second compound 3.16 µM, first compound 0.000316 µM
[17] = second compound 3.16 µM, first compound 0.001 µM
[18] = second compound 3.16 µM, first compound 0.00316 µM
[19] = second compound 3.16 µM, first compound 0.01 µM
[20] = second compound 3.16 µM, first compound 0.0316 µM
[21] = second compound 10 µM, first compound 0.000316 µM
[22] = second compound 10 µM, first compound 0.001 µM
[23] = second compound 10 µM, first compound 0.00316 µM
[24] = second compound 10 µM, first compound 0.01 µM
[25] = second compound 10 µM, first compound 0.0316 µM
[26] = second compound 0.1 µM, first compound 0.1 µM
[27] = second compound 0.316 µM, first compound 0.1 µM
[28] = second compound 1 µM, first compound 0.1 µM
[29] = second compound 3.16 µM, first compound 0.1 µM
[30] = second compound 10 µM, first compound 0.1 µM
[31] = second compound 0.1 µM, first compound 0.316 µM
[32] = second compound 0.1 µM, first compound 1 µM
[33] = second compound 0.1 µM, first compound 3.16 µM
[34] = second compound 0.1 µM, first compound 10 µM
[35] = second compound 0.316 µM, first compound 0.316 µM
[36] = second compound 0.316 µM, first compound 1 µM
[37] = second compound 0.316 µM, first compound 3.16 µM
[38] = second compound 0.316 µM, first compound 10 µM
[39] = second compound 1 µM, first compound 0.316 µM
[40] = second compound 1 µM, first compound 1 µM
[41] = second compound 1 µM, first compound 3.16 µM
[42] = second compound 1 µM, first compound 10 µM
[43] = second compound 3.16 µM, first compound 0.316 µM
[44] = second compound 3.16 µM, first compound 1 µM
[45] = second compound 3.16 µM, first compound 3.16 µM
[46] = second compound 3.16 µM, first compound 10 µM
[47] = second compound 10 µM, first compound 0.316 µM
[48] = second compound 10 µM, first compound 1 µM
[49] = second compound 10 µM, first compound 3.16 µM
[50] = second compound 10 µM, first compound 10 µM
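Further: spheroids exposed to compounds for seven days before readout.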

CC(=O)Nc1cccc(-n2c(=O)n(C3CC3)c(=O)c3c(Nc4ccc(I)cc4F)n(C)c(=O)c(C)c32)c1 + COc1cc2nc(C)nc(NC(C)c3cc(N)cc(C(F)(F)F)c3)c2cc1OC1CCOC1
inactive: viability, T/C (second compound 0.1 µM, first compound 0.0001 µM) 26.5% | viability, T/C [1] 12.7% | viability, T/C (second compound 0.316 µM, first compound 0.0001 µM) 19.8% | viability, T/C [6] 10.8% | viability, T/C (second compound 1 µM, first compound 0.0001 µM) 18% | viability, T/C (second compound 3.16 µM, first compound 0.0001 µM) 14.4% | viability, T/C [16] 11%
< 0.1 nM: IC50 (second compound 0.1 µM) | IC50 (second compound 0.316 µM) | IC50 (second compound 1 µM) | IC50 (second compound 3.16 µM) | IC50 (second compound 10 µM)
active: viability, T/C [2] 8.13% | viability, T/C [3] 7.1% | viability, T/C [4] 6.58% | viability, T/C [5] 5.51% | viability, T/C [7] 8.06% | viability, T/C [8] 7.58% | viability, T/C [9] 6.23% | viability, T/C [10] 4.76% | viability, T/C [11] 8.51% | viability, T/C [12] 7.77% | viability, T/C [13] 6.73% | viability, T/C [14] 5.93% | viability, T/C [15] 4.86% | viability, T/C [17] 8.06% | viability, T/C [18] 5.6% | viability, T/C [19] 5.05% | viability, T/C [20] 4.65% | viability, T/C (second compound 10 µM, first compound 0.0001 µM) 5.99% | viability, T/C [21] 4.73% | viability, T/C [22] 4.46% | viability, T/C [23] 3.12% | viability, T/C [24] 4.29% | viability, T/C [25] 3.2%

CN(C)C/C=C/C(=O)Nc1cc2c(Nc3ccc(F)c(Cl)c3)ncnc2cc1O[C@H]1CCOC1 + COc1cc2nc(C)nc(NC(C)c3cc(N)cc(C(F)(F)F)c3)c2cc1OC1CCOC1
> 100 nM: IC50 (second compound 0.1 µM) | IC50 (second compound 0.316 µM) | IC50 (second compound 1 µM) | IC50 (second compound 3.16 µM) | IC50 (second compound 10 µM)
inactive: viability, T/C [1] 97.6% | viability, T/C [2] 104% | viability, T/C [3] 88.8% | viability, T/C [4] 95.3% | viability, T/C [5] 93.8% | viability, T/C [26] 92.8% | viability, T/C [6] 87.2% | viability, T/C [7] 102% | viability, T/C [8] 92.2% | viability, T/C [9] 102% | viability, T/C [10] 87.5% | viability, T/C [27] 88.2% | viability, T/C [11] 91.5% | viability, T/C [12] 97.4% | viability, T/C [13] 101% | viability, T/C [14] 92.8% | viability, T/C [15] 90.8% | viability, T/C [28] 91.9% | viability, T/C [16] 74.7% | viability, T/C [17] 78.2% | viability, T/C [18] 70.3% | viability, T/C [19] 77.7% | viability, T/C [20] 67.6% | viability, T/C [29] 75.1% | viability, T/C [21] 74% | viability, T/C [22] 69.7% | viability, T/C [23] 73.2% | viability, T/C [24] 78.8% | viability, T/C [25] 73.4% | viability, T/C [30] 62.8%

COC(=O)c1ccc2c(C(=Nc3ccc(N(C)C(=O)CN4CCN(C)CC4)cc3)c3ccccc3)c(O)[nH]c2c1 + COc1cc2nc(C)nc(NC(C)c3cc(N)cc(C(F)(F)F)c3)c2cc1OC1CCOC1
1640 nM: IC50 (second compound 0.1 µM)
< 31.6 nM: IC50 (second compound 10 µM)
1050 nM: IC50 (second compound 0.316 µM)
587 nM: IC50 (second compound 3.16 µM)
inactive: viability, T/C [5] 113% | viability, T/C [26] 97.2% | viability, T/C [31] 76.1% | viability, T/C [32] 78.8% | viability, T/C [33] 8.68% | viability, T/C [34] 15.6% | viability, T/C [10] 91.2% | viability, T/C [27] 121% | viability, T/C [35] 83% | viability, T/C [36] 56.8% | viability, T/C [37] 7.24% | viability, T/C [15] 88.9% | viability, T/C [28] 103% | viability, T/C [39] 90.5% | viability, T/C [40] 64.7% | viability, T/C [41] 9.57% | viability, T/C [42] 11.1% | viability, T/C [20] 66.5% | viability, T/C [29] 92.8% | viability, T/C [43] 78.2% | viability, T/C [44] 25.8% | viability, T/C [25] 41.8% | viability, T/C [30] 28% | viability, T/C [47] 36.7% | viability, T/C [48] 11.3%
active: viability, T/C [38] 13.5% | viability, T/C [45] 5.92% | viability, T/C [46] 0.55% | viability, T/C [49] 1.15% | viability, T/C [50] 0.2%
1370 nM: IC50 (second compound 1 µM)

O=C(c1cc(Cc2n[nH]c(=O)c3ccccc23)ccc1F)N1CCN(C(=O)C2CC2)CC1 + COc1cc2nc(C)nc(NC(C)c3cc(N)cc(C(F)(F)F)c3)c2cc1OC1CCOC1
inactive: viability, T/C [5] 89.4% | viability, T/C [26] 96% | viability, T/C [31] 85.9% | viability, T/C [32] 85.6% | viability, T/C [33] 64.8% | viability, T/C [34] 32.3% | viability, T/C [10] 92.7% | viability, T/C [27] 94.8% | viability, T/C [35] 77.5% | viability, T/C [36] 87.6% | viability, T/C [37] 57.8% | viability, T/C [38] 27.5% | viability, T/C [15] 110% | viability, T/C [28] 105% | viability, T/C [39] 75.8% | viability, T/C [40] 93.8% | viability, T/C [41] 61.5% | viability, T/C [42] 30.2% | viability, T/C [20] 93.2% | viability, T/C [29] 76.6% | viability, T/C [43] 80.5% | viability, T/C [44] 60.1% | viability, T/C [45] 41.1% | viability, T/C [46] 23.8% | viability, T/C [25] 89.9% | viability, T/C [30] 36.1% | viability, T/C [47] 35.3% | viability, T/C [48] 22.2% | viability, T/C [49] 10.2% | viability, T/C [50] 9.73%
87.3 nM: IC50 (second compound 10 µM)
5370 nM: IC50 (second compound 0.1 µM)
1940 nM: IC50 (second compound 3.16 µM)
4260 nM: IC50 (second compound 0.316 µM)
4960 nM: IC50 (second compound 1 µM)

Reference: PubChem BioAssay AID1963866 (Molecular Pharmacology Branch, DTP, NCI, 2024)
